Reference: patent EP4775582A1, “MACROCYCLIC COMPOUND AND ANTIBODY-DRUG CONJUGATE THEREOF” (Genfleet Therapeutics (Shanghai) Inc., priority 2023, dated 2025)
Converted amounts (≈) assume the structure as drawn. Read-outs that look alike come from different tables or passages of the source.

Assays:
[1] = biological target: KRAS WT-cRAF (Homo sapiens, UniProt P01116+P62937); assay: Assay for binding of KRAS to cRAF (HTRF, with Cyclophilin A), KRAS WT
Protocol: (§3) The plate was centrifuged at 1000 rpm for 1 min and then incubated in the thermostatic incubator at 20 °C for 30 min. […] The plate was centrifuged at 1000 rpm for 1 min and then incubated in the thermostatic incubator at 20 °C for 60 min. […] The working solution was added to the aforementioned assay plate at 5 µL/well. The plate was centrifuged at 1000 rpm for 1 min and then incubated in the thermostatic incubator at 20 °C for 60 min.

[2] = biological target: KRAS G12V-cRAF (Homo sapiens, UniProt P01116+P62937, G12V); assay: Assay for binding of KRAS to cRAF (HTRF, with Cyclophilin A), KRAS G12V
Sequence of KRAS G12V-cRAF (P01116 1-188 isoform P01116-2 G12V): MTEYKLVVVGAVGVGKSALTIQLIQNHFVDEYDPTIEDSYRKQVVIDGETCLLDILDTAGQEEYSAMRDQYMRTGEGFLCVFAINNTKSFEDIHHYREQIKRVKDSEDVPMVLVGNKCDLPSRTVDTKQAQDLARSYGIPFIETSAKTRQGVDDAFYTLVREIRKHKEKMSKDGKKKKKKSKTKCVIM
Sequence of KRAS G12V-cRAF (P62937 whole entry): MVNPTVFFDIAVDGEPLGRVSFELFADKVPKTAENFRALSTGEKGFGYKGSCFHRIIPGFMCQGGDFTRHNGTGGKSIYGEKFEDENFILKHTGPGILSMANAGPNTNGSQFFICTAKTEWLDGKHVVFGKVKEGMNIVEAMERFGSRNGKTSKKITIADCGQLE
Protocol: as §3

[3] = tested on: AsPC-1 p-ERK; assay: Cell p-ERK assay (HTRF), AsPC-1 cells; format: cell-based, human
Outline: (§1)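 Phospho-ERK (T202/Y204) was measured by HTRF in lysates after 3 h compound treatment at 37 °C. Cells had been plated the previous day at 20000 per well for NCI-H441 and 10000 per well for AsPC-1. Four-parameter dose-response fitting of % inhibition gave IC50 values.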

[4] = tested on: NCI-H441 cells; assay: 3D cell proliferation assay (CellTiter Glo-3D), NCI-H441; format: cell-based, human; settings: NCI-H441 cells (KRAS G12V), 2% FBS, 5 days, read-out: H441 AP IC50
Outline: (§2)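 IC50 values come from four-parameter fits of inhibition rate against log compound concentration, using CellTiter-Glo luminescence read after 5 days' exposure. AsPC-1 and NCI-H441 were plated at 800 cells per well in low-serum (2% FBS) medium. Compound was dosed the day after seeding, with incubation at 37 °C, 5% CO2.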

[5] = tested on: H441 p-ERK; assay: Cell p-ERK assay (HTRF), NCI-H441 cells; format: cell-based, human; settings: NCI-H441 cells (KRAS G12V), 3 h incubation
Outline: as §1

[6] = tested on: AsPC-1 cells; assay: 3D cell proliferation assay (CellTiter Glo-3D), AsPC-1; format: cell-based, human
Outline: as §2

[7] = Solubility experiment (HPLC, external standard); format: physicochemical; settings: 37 °C, 24 h; for Solubility at pH 7.4 (µg/mL): pH 7.4 medium, 1440 min
Protocol: This experiment was intended to determine the solubility of the compounds in media at different pH values. The materials used in the experiment included: a pH 1.2 medium, a pH 4.5 medium, a pH 7.4 medium, and a diluent (acetonitrile/water = 50/50). 1. The preparation methods for media are as follows:
One centrifuge tube (containing about 2 mg of the test sample) was taken, 1 mL of DMSO was added to completely dissolve the test sample, and the mixture was marked as stock-1. 0.2 mL of stock-1 was transferred into a 10 mL volumetric flask, and then the 50:50 (acetonitrile/water) solution was added to bring the volume to the mark, so as to give a control solution.
Additionally, centrifuge tubes each containing about 1 mg of the test sample were taken, 1 mL of the corresponding medium solution was then added, and the tubes were shaken on a 37 °C water bath shaker for 24 h. After centrifugation for 3 times (centrifugation time: 10 min, rotation speed: 12000 rpm), 0.2 mL of the supernatants were taken, 0.8 mL of the diluent (acetonitrile/water = 50/50) was added to each tube, and the mixtures were vortexed and mixed well to give solubility samples.
The solubility samples described above and the control solution were sequentially analyzed by high performance liquid chromatography. The chromatographic conditions are as follows:
The actual concentration of the compound in each solubility sample was calculated according to an external standard method. Concentration (μg/mL) = (ASample × CControl × DSample)/(AControl)∗1000; [formula] Asample: the peak area of the target peak in the sample solution; Ccontrol: the concentration (mg/mL) of the control solution; Dsample: the dilution factor of the sample solution; Acontrol: the peak area of the target peak in the control solution.

[8] = KRAS WT-cRAF binding assay(nM), GPPNP-KRAS WT, IC50 values
[9] = KRAS G12V-cRAF binding assay(nM), GPPNP-KRAS G12V, IC50 values
[10] = Homo sapiens, ASPC1, AsPC-1 cells (KRAS G12D), 3 h incubation, read-out: AsPC-1 p-ERK IC50
[11] = Homo sapiens, ASPC1, 120 h, AsPC-1 cells (KRAS G12D), 3D, 2% FBS, 5 days, read-out: AsPC-1 AP IC50
[12] = read-out: KRAS WT-cRAF binding assay, GPPNP-KRAS WT, IC50 values
[13] = read-out: KRAS G12V-cRAF binding assay, GPPNP-KRAS G12V, IC50 values

Sequence of KRAS WT-cRAF (P01116 1-188 isoform P01116-2): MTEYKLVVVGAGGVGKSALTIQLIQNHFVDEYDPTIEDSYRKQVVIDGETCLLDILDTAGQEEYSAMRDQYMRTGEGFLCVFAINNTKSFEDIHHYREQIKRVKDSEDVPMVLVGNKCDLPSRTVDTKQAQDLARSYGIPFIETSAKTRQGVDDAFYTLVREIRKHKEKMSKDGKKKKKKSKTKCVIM
Sequence of KRAS WT-cRAF (P62937 whole entry): as the sequence (P62937 whole entry) above

Row | Compound | IC50 [1, 8] [nM] | IC50 [2, 9] [nM] | IC50 [3, 10] [nM] | IC50 ([4]; Homo sapiens, 120 h) [nM] | IC50 ([5]; Homo sapiens) [nM] | IC50 [6, 11] [nM] | also measured
1 | COCCn1c(-c2cc(C#CCN3CCC(C#N)(CO)CC3)cnc2C(C)OC)c2c3cc(ccc31)-c1csc(n1)CC(NC(=O)C1C(C)C1C)C(=O)N1CCCC(N1)C(=O)OCC(C)(C)C2 [Compound Z29, (1r,2R,3S)-N-((6^3S,4S,Z)-1^2-(5-(3-(4-cyano-4-(hydroxymethyl)piperidin-1-yl)prop-1-yn-1-yl)-2-((S)-1-methoxyethyl)pyridin-3-yl)-1^1-(methoxyethyl)-10,10-dimethyl-5,7-dioxo-6^1,6^2,6^3,6^4,6^5,6^6-hexahydro-1^1H-8-oxa-2(4,2)-thiazola-1(5,3)-indola-6(1,3)-pyridazinacycloundecaphane-4-yl)-2,3-dimethylcyclopropane-1-carboxamide] | 37 | 18.5 | 0.07 | 0.21 | 0.38 | 0.09 | 
2 | CCn1c(-c2cc(C#CCN3CCS(=O)(=O)CC3)cnc2C(C)O)c2c3cc(ccc31)-c1csc(n1)CC(NC(=O)C1C(C)C1C)C(=O)N1CCCC(N1)C(=O)OCC(C)(C)C2 (atropisomer, axis not shown; (Ra)) [Compound Z60, (1r,2R,3S)-N-((6^3S,4S,Z)-(Ra)-1^2-(5-(3-(1,1-dioxidothiomorpholino)prop-1-yn-1-yl)-2-((S)-1-hydroxyethyl)pyridin-3-yl)-1^1-ethyl-10,10-dimethyl-5,7-dioxo-6^1,6^2,6^3,6^4,6^5,6^6-hexahydro-1^1H-8-oxa-2(4,2)-thiazola-1(5,3)-indola-6(1,3)-pyridazinacycloundecaphane-4-yl)-2,3-dimethylcyclopropane-1-carboxamide] | 15.3 | 15.2 | 0.28 | 0.16 | 0.15 | 0.32 | 
3 | CCn1c(-c2cc(C#CCN3CCC(C#N)(CN)CC3)c[n+]([O-])c2[C@H](C)OC)c2c3cc(ccc31)-c1csc(n1)C[C@H](NC(=O)[C@H]1[C@@H]3COC[C@@H]31)C(=O)N1CCC[C@H](N1)C(=O)OCC(C)(C)C2 (atropisomer, axis not shown; (Ra)) [Compound Z64-1, (Ra)-3-((6^3S,4S,Z)-4-((1R,5S,6r)-3-oxabicyclo[3.1.0]hexane-6-carboxamido)-1^1-ethyl-10,10-dimethyl-5,7-dioxo-6^1,6^2,6^3,6^4,6^5,6^6-hexahydro-1^1H-8-oxa-2(4,2)-thiazola-1(5,3)-indola-6(1,3)-pyridazinacycloundecaphane-1^2-yl)-5-(3-(4-(aminomethyl)-4-cyanopiperidin-1-yl)prop-1-yn-1-yl)-2-((S)-1-methoxyethyl)pyridine 1-oxide] |  |  |  |  |  |  | IC50 [1, 12]: 31.2 nM; IC50 [2, 13]: 4.1 nM; IC50 ([3]; AsPC-1 cells (KRAS G12D), 3 h incubation, read-out: AsPC-1 p-ERK IC50): 9.07 nM; IC50 [4]: 5.1 nM; IC50 [5]: 5.07 nM; IC50 ([6]; AsPC-1 cells (KRAS G12D), 3D, 2% FBS, 5 days, read-out: AsPC-1 AP IC50): 3.77 nM
4 | CCn1c(-c2cc(C#CCN3CCC(C#N)(CO)CC3)c[n+]([O-])c2[C@H](C)OC)c2c3cc(ccc31)-c1csc(n1)C[C@H](NC(=O)[C@H]1[C@H](C)[C@@H]1C)C(=O)N1CCC[C@H](N1)C(=O)OCC(C)(C)C2 (atropisomer, axis not shown; (Sa)) [Compound Z45-2, 5-(3-(4-cyano-4-(hydroxymethyl)piperidin-1-yl)prop-1-yn-1-yl)-(Sa)-3-((6^3S,4S,Z)-4-((1r,2R,3S)-2,3-dimethylcyclopropane-1-carboxamido)-1^1-ethyl-10,10-dimethyl-5,7-dioxo-6^1,6^2,6^3,6^4,6^5,6^6-hexahydro-1^1H-8-oxa-2(4,2)-thiazola-1(5,3)-indola-6(1,3)-pyridazinacycloundecaphane-1^2-yl)-2-((S)-1-methoxyethyl)pyridine 1-oxide] |  |  |  |  |  |  | Solubility at pH 7.4 (µg/mL) [7]: 8.42 µg/mL
5 | COCCn1c(-c2cc(C#CCN3CCN(C(=O)CO)CC3)c[n+]([O-])c2[C@H](C)OC)c2c3cc(ccc31)-c1csc(n1)C[C@H](NC(=O)[C@H]1[C@@H]3COC[C@@H]31)C(=O)N1CCC[C@H](N1)C(=O)OCC(C)(C)C2 (atropisomer, axis not shown; (Sa)) [Compound Z38-2, (Sa)-3-((6^3S,4S,Z)-4-((1R,5S,6r)-3-oxabicyclo[3.1.0]hexane-6-carboxamido)-1^1-(2-methoxyethyl)-10,10-dimethyl-5,7-dioxo-6^1,6^2,6^3,6^4,6^5,6^6-hexahydro-11H-8-oxa-2(4,2)-thiazola-1(5,3)-indola-6(1,3)-pyridazinacycloundecaphane-1^2-yl)-5-(3-(4-(2-hydroxyacetyl)piperazin-1-yl)prop-1-yn-1-yl)-2-((S)-1-methoxyethyl)pyridine-1-oxide] |  |  |  |  |  |  | solubility at 24 h ([7]; ph 7.4 medium, pH 7.4, pH 7.4 medium): 176 µg/mL (≈ 182 µM)
6 | COCCn1c(-c2cc(C#CCN3CCN(C(=O)CO)CC3)cnc2[C@H](C)OC)c2c3cc(ccc31)-c1csc(n1)C[C@H](NC(=O)[C@H]1[C@H](C)[C@@H]1C)C(=O)N1CCC[C@H](N1)C(=O)OCC(C)(C)C2 (atropisomer, axis not shown; (Sa)) [Compound Z63-2, (2R,3S)-N-((6^3S,4S,Z)-1^2-(5-(3-(4-(2-hydroxyacetyl)piperazin-1-yl)prop-1-yn-1-yl)-(Sa)-2-((S)-1-methoxyethyl)pyridin-3-yl)-1^1-(2-methoxyethyl)-10,10-dimethyl-5,7-dioxo-6^1,6^2,6^3,6^4,6^5,6^6-hexahydro-1^1H-8-oxa-2(4,2)-thiazola-1(5,3)-indola-6(1,3)-pyridazinacycloundecaphane-4-yl)-2,3-dimethylcyclopropane-1-carboxamide] |  |  |  |  |  |  | Solubility at pH 7.4 (µg/mL) [7]: 15.37 µg/mL
7 | CCn1c(-c2cc(C#CCN3CCS(=O)(=O)CC3)cnc2[C@H](C)OC)c2c3cc(ccc31)-c1csc(n1)[C@@H](N)[C@H](NC(=O)[C@H]1[C@H](C)[C@@H]1C)C(=O)N1CCC[C@H](N1)C(=O)OCC(C)(C)C2 (atropisomer, axis not shown; (Ra)) [Compound Z65, (1r,2R,3S)-N-((6^3S,3S,4S,Z)-3-amino-(Ra)-1^2-(5-(3-(1,1-dioxidothiomorpholino)prop-1-yn-1-yl)-2-((S)-1-methoxyethyl)pyridin-3-yl)-1^1-ethyl-10,10-dimethyl-5,7-dioxo-6^1,6^2,6^3,6^4,6^5,6^6-hexahydro-11H-8-oxa-2(4,2)-thiazola-1(5,3)-indola-6(1,3)-pyridazinacycloundecaphane-4-yl)-2,3-dimethylcyclopropane-1-carboxamide] |  |  |  | 0.25 | 0.14 |  | IC50 [1, 12]: 22.9 nM; IC50 [2, 13]: 5 nM; IC50 ([3]; Homo sapiens, ASPC1, 3 h, read-out: AsPC-1 p-ERK IC50(nM)): 0.06 nM; IC50 ([6]; Homo sapiens, ASPC1, 120 h, read-out: AsPC-1 AP IC50(nM)): 0.15 nM
8 | COCCn1c(-c2cc(C#CCN3CCN(C(=O)CO)CC3)cnc2C(C)OC)c2c3cc(ccc31)-c1csc(n1)CC(NC(=O)C1C3COCC31)C(=O)N1CCCC(N1)C(=O)OCC(C)(C)C2 (atropisomer, axis not shown; (Ra)) [Compound Z31-1, (1R,5S,6r)-N-((6^3S,4S,Z)-(Ra)-1^2-(5-(3-(4-(2-hydroxyacetyl)piperazin-1-yl)prop-1-yn-1-yl)-2-((S)-1-methoxyethyl)pyridin-3-yl)-1^1-(methoxyethyl)-10,10-dimethyl-5,7-dioxo-6^1,6^2,6^3,6^4,6^5,6^6-hexahydro-1^1H-8-oxa-2(4,2)-thiazola-1(5,3)-indola-6(1,3)-pyridazinacycloundecaphane-4-yl)-3-oxabicyclo[3.1.0]hexane-6-carboxamide] | 75 | 14.7 | 2.65 | 1.07 | 0.92 | 2.09 | 
